Assays:
Assay type in all cases: cell-based
Aspergillus flavus = assay: Agar plate disc-diffusion, antifungal inhibition zone; conditions: Sabouraud's dextrose agar, 72 hours
Method: (§1) The agar plate disc-diffusion method was applied. […] The discs were then placed onto the surface of agar plates (nutrient agar for bacteria and Sabouraud's dextrose agar for fungi) seeded with the test organism. Each plate contained 15 mL of the agar medium, previously seeded with 0.2 mL of the broth culture of each organism pregrown for 18 hours. The plates were incubated at 37° C. for 48 hours, and 72 hours for fungi. The inhibition zones were measured in mm. Discs impregnated with DMSO were used as a control, and its inhibition zone was subtracted from the tested compound actual inhibition zone.

[1] = system: Chrysosporium keratinophilum; assay: as above; conditions: Sabouraud's dextrose agar, 72 hours
Method: (§2) The agar plate disc-diffusion method was applied. Sterilized filter papers (6 mm in diameter) were wetted with 10 μL of a solution of 4-((5-(3-fluorophenyl)-4-phenyl-4H-1,2,4-triazol-3-ylthio)methyl)benzoic acid (III) to be tested, containing 10 mg/mL in DMSO, and the discs were allowed to air dry. The discs were then placed onto the surface of agar plates (nutrient agar for bacteria and Sabouraud's dextrose agar for fungi) seeded with the test organism. Each plate contained 15 mL of the agar medium, previously seeded with 0.2 mL of the broth culture of each organism pregrown for 18 hours. The plates were incubated at 37° C. for 48 hours, and 72 hours for fungi. The inhibition zones were measured in mm. Discs impregnated with DMSO were used as a control, and its inhibition zone was subtracted from the tested compound actual inhibition zone.

Pseudomonas aeruginosa = assay: Agar plate disc-diffusion, antibacterial inhibition zone; conditions: Pseudomonas aeruginosa (Gram negative), nutrient agar, 37° C., 48 hours
Method: as §1

Staphylococcus aureus = assay: as above; conditions: Staphylococcus aureus (Gram positive), nutrient agar, 37° C., 48 hours
Method: as §1

Bacillus Cereus = assay: as above; conditions: Bacillus Cereus (Gram positive), nutrient agar, 37° C., 48 hours
Method: as §1

Escherichia coli = assay: as above; conditions: Escherichia coli (Gram negative), nutrient agar, 37° C., 48 hours
Method: as §2

[2] = A = concentration of comp. = 10,000 μL
[3] = B = concentration of comp. = 30,000 μL
[4] = C = concentration of comp. = 50,000 μL

In the case of `O=C(O)c1cn(C2CC2)c2cc(N3CCNCC3)c(F)cc2c1=O` [Cip., ciprofloxacin], the inhibition zone (Aspergillus flavus; [2]) is reported as 29 mm, the inhibition zone (Aspergillus flavus; [3]) is reported as 30 mm and the inhibition zone (Aspergillus flavus; [4]) is reported as 42 mm. It also gave an inhibition zone [1, 2] of 29 mm, an inhibition zone [1, 3] of 30 mm and an inhibition zone [1, 4] of 53 mm. The inhibition zone (Pseudomonas aeruginosa; [2]) was 29 mm, the inhibition zone (Pseudomonas aeruginosa; [3]) was 30 mm and the inhibition zone (Pseudomonas aeruginosa; [4]) was 53 mm. The inhibition zone (Staphylococcus aureus; [2]) was 43 mm, the inhibition zone (Staphylococcus aureus; [3]) was 44 mm and the inhibition zone (Staphylococcus aureus; [4]) was 53 mm. For the same molecule, the inhibition zone (Bacillus Cereus; [2]) was 29 mm, the inhibition zone (Bacillus Cereus; [3]) was 30 mm and the inhibition zone (Bacillus Cereus; [4]) was 42 mm. The inhibition zone (Escherichia coli; [2]) was 30 mm, the inhibition zone (Escherichia coli; [3]) was 39 mm and the inhibition zone (Escherichia coli; [4]) was 60 mm.

`O=C(O)c1ccc(CSc2nnc(-c3cccc(F)c3)n2-c2ccccc2)cc1` [III, 4-((5-(3-fluorophenyl)-4-phenyl-4H-1,2,4-triazol-3-ylthio)methyl)benzoic acid] was tested, and the inhibition zone (Aspergillus flavus; [2]) was 24 mm, the inhibition zone (Aspergillus flavus; [3]) was 26 mm and the inhibition zone (Aspergillus flavus; [4]) was 35 mm. For the same molecule, the inhibition zone [1, 2] was 23 mm, the inhibition zone [1, 3] was 27 mm and the inhibition zone [1, 4] was 41 mm. The inhibition zone (Pseudomonas aeruginosa; [2]) was 22 mm, the inhibition zone (Pseudomonas aeruginosa; [3]) was 26 mm and the inhibition zone (Pseudomonas aeruginosa; [4]) was 37 mm. The inhibition zone (Staphylococcus aureus; [2]) was 19 mm, the inhibition zone (Staphylococcus aureus; [3]) was 25 mm and the inhibition zone (Staphylococcus aureus; [4]) was 35 mm. For the same molecule, the inhibition zone (Bacillus Cereus; [2]) was 26 mm, the inhibition zone (Bacillus Cereus; [3]) was 28 mm and the inhibition zone (Bacillus Cereus; [4]) was 40 mm. It also gave an inhibition zone (Escherichia coli; [2]) of 28 mm, an inhibition zone (Escherichia coli; [3]) of 36 mm and an inhibition zone (Escherichia coli; [4]) of 50 mm.

Reference: patent publication US11970466B1, “4-((5-(3-fluorophenyl)-4-phenyl-4H-1,2,4-triazol-3-ylthio)methyl)benzoic acid as an antimicrobial compound” (KING FAISAL UNIVERSITY, priority 2023, dated 2024)
